Values of other authors as cited in patent US20140010866A1, “METHODS AND SYSTEMS FOR TREATMENT OF MIGRAINES AND OTHER INDICATIONS” (Strategic Science & Technologies, LLC, priority 2010, published 2014).

pKa	SMILES
17.27	CN[C@@H]1CCc2[nH]c3ccc(C(N)=O)cc3c2C1 [frovatriptan]
17.11	CNS(=O)(=O)CCc1ccc2[nH]cc(C3CCN(C)CC3)c2c1 [naratriptan]
8.77	CN(C)CCc1c[nH]c2ccc(CS(=O)(=O)N3CCCC3)cc12 [almotriptan]
17.15	CN(C)CCc1c[nH]c2ccc(C[C@H]3COC(=O)N3)cc12 [zolmitriptan]

SMILES	pKa
CC(C)[C@H]1C(=O)N2CCC[C@H]2[C@]2(O)O[C@@](C)(NC(=O)[C@@H]3C=C4c5cccc6[nH]cc(c56)C[C@H]4N(C)C3)C(=O)N12 [ergovaline]	11.64
CC(C)C[C@H]1C(=O)N2CCC[C@H]2[C@]2(O)O[C@](NC(=O)[C@@H]3C=C4c5cccc6[nH]c(Br)c(c56)C[C@H]4N(C)C3)(C(C)C)C(=O)N12 [bromocriptine]	11.13
